Measurements as given in patent publication US20110305703A1, “ISOLATED VEGF-C AND VEGF-D PEPTIDES AND USES THEREOF” (Vegenics Pty Limited, priority 2008, published 2011).
Primed or numbered codes have the meaning given here. No end group written: not given here. *: point of attachment. Biotin = O=C1N[C@H]2[C@H](CS[C@H]2CCCCC(=O)*)N1; Biotin′ = not defined here

system: VEGF-D neutralizing monoclonal antibody mAb 4A5 (VDnmAb); assay: ELISA of biotinylated synthetic peptides on streptavidin plates for VDnmAb binding; details: 1st peptide library; 10 pmol peptide; VDnmAb 2 μg/ml; signal more than two-fold greater than background considered positive
From the text: Peptides. A series of synthetic 15-mer peptides (peptides 1 to 35, SEQ ID NOs: 4 to 38 in FIG. 4B, which overlap each other by 12 amino acids) were synthesized (Mimotopes Pty Ltd, Melbourne, Australia). The peptides encompassed the VHD of human VEGF-D (SEQ ID NO: 3, FIG. 4A). Peptide 36 (SEQ ID NO: 39) represented an artificial sequence including a FLAG tag as a positive control for a commercial anti-FLAG mAb (M2; Sigma) that was used as control for non-specific binding to peptides 1 to 35 (SEQ ID NOs: 4 to 38). Biotin was included at the N-terminal of each peptide during synthesis, except that peptide 1 (SEQ ID NO: 4, representing the N-terminal of the VHD) has biotin at the C-terminal. The four-amino acid linker “SGSG” was introduced between the N-terminal of each peptide sequence and biotin to provide more flexibility to peptides after immobilization on streptavidin plates, except peptide 1 (SEQ ID NO: 4) that included the C-terminal linker “GSG”.
ELISA. Reacti-Bind streptavidin high-binding-capacity coated plates (Pierce) were coated with 10 pmol of each peptide in PBS, blocked with 5% milk in PBS-0.1% Tween 20, and incubated with 100 μl of VEGF-D neutralizing monoclonal antibody mAb 4A5 (referred to herein as VDnmAb) or M2 at 2 μg/ml for 1 h at room temperature. Bound mAb was detected with goat anti-mouse IgG coupled with HRP. ABTS was used as the substrate, and the absorbance was read at 405 nm in a multiwell plate reader.
In this 2nd peptide library, biotin was included at the N-terminal of each peptide, and the four-amino acid linker “SGSG” was introduced between each peptide sequence and the biotin residue to provide more flexibility to peptides after immobilization on streptavidin plates. ELISA-based analysis of the 2nd peptide library was carried out as for the 1st peptide library.
Peptide 67 (SEQ ID NO: 141, the same as peptide 36, SEQ ID NO: 39 from the 1st library) and peptide 68 (SEQ ID NO: 142), both containing the FLAG tag, were used as controls. In this 3rd peptide library, biotin was included at the N-terminal of each peptide except peptides 6, 12 and 14 (SEQ ID NOs: 80, 86 and 88) which have C-terminal biotin residues. To provide more flexibility to peptides after immobilization on streptavidin plates, an amino acid linker was introduced between biotin residues and the peptide sequence: “SGSG” for N-terminal biotin; “SGS” for C-terminal biotin. ELISA-based analysis of the 3rd peptide library was carried out as for the 1st peptide library, described in Example 1.

| Substance | VDnmAb binding to peptide (ELISA signal, absorbance at 405 nm) |
| --- | --- |
| FRCGGCCNEESLICM (Biotin-SGSGFRCGGCCNEESLICM; cysteine pairing not given here) [peptide 18 (SEQ ID NO: 21), residues 140 to 154 of human VEGF-D, N-terminal biotin and SGSG linker] | positive |
| VNVFRCGGCCNEESL (Biotin-SGSGVNVFRCGGCCNEESL; cysteine pairing not given here) [peptide 17 (SEQ ID NO: 20), residues 137 to 151 of human VEGF-D, N-terminal biotin and SGSG linker] | the strongest |
| peptide 16 (SEQ ID NO: 19): 1st library 15-mer which lacks the three C-terminal residues of peptide 17, SEQ ID NO: 20 (SGSGPPCVNVFRCGGCCNE) | does not bind VDnmAb |

same assay, conditions: 2nd peptide library; 10 pmol peptide; VDnmAb 2 μg/ml; signal more than two-fold greater than background considered positive

| Substance | VDnmAb binding to peptide (ELISA signal, absorbance at 405 nm) |
| --- | --- |
| 30 (SEQ ID NO: 69): from mouse VEGF-D, homologous to Peptide 31 (SEQ ID NO: 70): serine 150 to glycine, leucine 151 to valine (Biotin-SGSGVNVFRCGGCCNEEGV; cysteine pairing not given here) | complete loss of VDnmAb binding |
| FRCGGCCNEESL (Biotin-SGSGFRCGGCCNEESL; cysteine pairing not given here) [peptide 15 (SEQ ID NO: 54), residues 140 to 151 of human VEGF-D, 2nd library, N-terminal biotin and SGSG linker] | positive |
| NVFRCGGCCNEESL (Biotin-SGSGNVFRCGGCCNEESL; cysteine pairing not given here) [peptide 13 (SEQ ID NO: 52), residues 138 to 151 of human VEGF-D, N-terminal biotin and SGSG linker] | positive |
| VFRCGGCCNEESL (Biotin-SGSGVFRCGGCCNEESL; cysteine pairing not given here) [peptide 14 (SEQ ID NO: 53), residues 139 to 151 of human VEGF-D, N-terminal biotin and SGSG linker] | the strongest |
| VNVFRCGGCCNEESL (Biotin-SGSGVNVFRCGGCCNEESL; cysteine pairing not given here) [peptide 17 (SEQ ID NO: 20), residues 137 to 151 of human VEGF-D, N-terminal biotin and SGSG linker] | bound to VDnmAb |
| VPLMRCGGCCNDEGL (Biotin-SGSGVPLMRCGGCCNDEGL; not fully specified; cysteine pairing not given here) [peptide 33 (SEQ ID NO: 72), residues 78 to 92 of VEGF-A, biotin and linker] | did not bind the antibody |
| VSLLRCTGCCGDENL (Biotin-SGSGVSLLRCTGCCGDENL; not fully specified; cysteine pairing not given here) [peptide 35 (SEQ ID NO: 74), residues 78 to 92 of PlGF, biotin and linker] | did not bind the antibody |
| VSVYRCGGCCNSEGL (Biotin-SGSGVSVYRCGGCCNSEGL; not fully specified; cysteine pairing not given here) [peptide 32 (SEQ ID NO: 71), residues 157 to 171 of human VEGF-C, biotin and linker] | did not bind the antibody |
| VTVQRCGGCCPDDGL (Biotin-SGSGVTVQRCGGCCPDDGL; not fully specified; cysteine pairing not given here) [peptide 34 (SEQ ID NO: 73), residues 73 to 87 of VEGF-B, biotin and linker] | did not bind the antibody |
| peptide 18 (SEQ ID NO: 57): peptide 14 (SEQ ID NO: 53) with deletion of the leucine residue corresponding to position 151 (SGSGVFRCGGCCNEES) | complete loss of VDnmAb binding |
| peptide 22 (SEQ ID NO: 61): 2nd library: single mutation of cysteine in the binding region, C146S (SGSGVNVFRCGGCSNEESL) | very minor or no effect on VDnmAb binding |

same assay, conditions: 3rd peptide library; 10 pmol peptide; VDnmAb 2 μg/ml; signal more than two-fold over background considered positive

| Substance | VDnmAb binding to peptide (ELISA signal, absorbance at 405 nm) |
| --- | --- |
| CGGCCNEESL (SGSGCGGCCNEESL) [peptide 15 (SEQ ID NO: 89)] | positive |
| FRCGGCCNEESL [peptide 12 (SEQ ID NO: 86)] (FRCGGCCNEESLSGS-{Biotin′}; cysteine pairing not given here) | decreases in VDnmAb binding |
| GGCCNEESL (SGSGGGCCNEESL) [peptide 16 (SEQ ID NO: 90)] | positive |
| RCGGCCNEESL [peptide 13 (SEQ ID NO: 87)] (Biotin-SGSGRCGGCCNEESL; cysteine pairing not given here) | the strongest |
| RCGGCCNEESL [peptide 14 (SEQ ID NO: 88)] (RCGGCCNEESLSGS-{Biotin′}; cysteine pairing not given here) | decreases in VDnmAb binding |
| VFRCGGCCNEESL (VFRCGGCCNEESLSGS-{Biotin′}; cysteine pairing not given here) [peptide 6 (SEQ ID NO: 80)] | decreases in VDnmAb binding |
| peptide 1 (SEQ ID NO: 75): 3rd library: variant of VFRCGGCCNEESL with mutation S150C (SGSGVFRCGGCCNEECL) | loss, even complete loss, of VDnmAb binding |
| peptide 2 (SEQ ID NO: 76): 3rd library: variant of VFRCGGCCNEESL with mutation S150A (SGSGVFRCGGCCNEEAL) | reduced VDnmAb binding somewhat |
| peptide 3 (SEQ ID NO: 77): 3rd library: variant of VFRCGGCCNEESL with mutation S150T (SGSGVFRCGGCCNEETL) | loss, even complete loss, of VDnmAb binding |
| peptide 4 (SEQ ID NO: 78): 3rd library: variant with deletion of one of N147, E148, E149, S150 (SGSGVFRCGGCCNEEL) | loss of VDnmAb binding |
| peptide 7 (SEQ ID NO: 81): 3rd library: mutation of residue 151 to valine (SGSGVFRCGGCCNEESV) | decreased VDnmAb binding |
| peptide 8 (SEQ ID NO: 82): 3rd library: mutation of residue 151 to alanine (SGSGVFRCGGCCNEESA) | decreased VDnmAb binding |
| peptide 9 (SEQ ID NO: 83): 3rd library: mutation V139L (SGSGLFRCGGCCNEESL) | little or no effect on VDnmAb binding |
| peptide 10 (SEQ ID NO: 84): 3rd library: mutation V139A (SGSGAFRCGGCCNEESL) | little or no effect on VDnmAb binding |
| peptide 17 (SEQ ID NO: 91): 3rd library: mutation F140Y (SGSGVYRCGGCCNEESL) | little or no effect on VDnmAb binding |
| peptide 18 (SEQ ID NO: 92): 3rd library: mutation F140A (SGSGVARCGGCCNEESL) | little or no effect on VDnmAb binding |
| peptide 19 (SEQ ID NO: 93): 3rd library: deletion of F140 (SGSGVRCGGCCNEESL) | little or no effect on VDnmAb binding |
| peptide 20 (SEQ ID NO: 94): 3rd library: mutation R141K (SGSGVFKCGGCCNEESL) | more pronounced effect |
| peptide 21 (SEQ ID NO: 95): 3rd library: mutation R141A (SGSGVFACGGCCNEESL) | little or no effect on VDnmAb binding |

same assay, conditions: 3rd peptide library; 10 pmol peptide; VDnmAb 2 μg/ml; signal more than two-fold over background considered positive; listed as peptide 5 (SEQ ID NO: 79)

| Substance | VDnmAb binding to peptide (ELISA signal, absorbance at 405 nm) |
| --- | --- |
| VFRCGGCCNEESL (Biotin-SGSGVFRCGGCCNEESL; cysteine pairing not given here) [peptide 14 (SEQ ID NO: 53), residues 139 to 151 of human VEGF-D, N-terminal biotin and SGSG linker] | bound to VDnmAb |
